{
  "source": "patent US20240041976A1",
  "about": "“COMPOSITION AND USE” (priority 2020, published 2024)",
  "key": {"[1]": {"tested_on": "MRSA ATCC 33521-lux", "test": "Agar plate spot assay, resistance development (FIG. 4)", "type": "cell-based, Staphylococcus aureus", "details": "up to 72 h incubation at 37° C.", "experimental": "Pure GarKS and PenG each at 50 μg, MP1 at 0.1 μg, were applied at the indicated spots. The pictures of the plates were taken after 24, 48 and 72 h of incubation at 37° C. Sections of the inhibition zones on the right show resistance development seen as small white dots (in the inhibition zones of GarKS and MP1)."}, "[2]": {"tested_on": "S. haemolyticus 4069", "test": "microbe, parasite or virus in culture", "details": "for MIC of the component in combination: 4069"}, "[3]": {"tested_on": "S. haemolyticus 4070", "test": "microbe, parasite or virus in culture", "details": "for MIC of the component in combination: 4070"}, "[4]": {"tested_on": "S. haemolyticus 4071", "test": "microbe, parasite or virus in culture", "details": "for MIC of the component in combination: 4071"}, "[5]": {"tested_on": "S. haemolyticus 4073", "test": "microbe, parasite or virus in culture", "details": "for MIC of the component in combination: 4073"}, "[6]": {"tested_on": "S. haemolyticus 4068", "test": "microbe, parasite or virus in culture", "details": "for MIC of the component in combination: 4068"}, "[7]": {"tested_on": "E. faecalis 3351", "test": "microbe, parasite or virus in culture", "type": "cell-based, Enterococcus faecalis", "details": "Enterococcus faecalis; E. faecalis 3351; read-out: MIC, single antimicrobial", "experimental": "Antimicrobial activity was measured using the AAMP assay (Wiegand et al., 2008, Nat. Protoc., Vol. 3(2), p 163-175).\nSynergy testing was done with a microtiter plate checkerboard assay as previously described (Orhan et al., 2005, J. Clin. Microbiol., Vol. 43(1), p 140-143). Briefly, equal amounts of antimicrobial A were applied on microtiter plate 1 in wells A1-H1 and then diluted two-fold to wells 2-12. Similarly, equal amounts of antimicrobial B were applied on microtiter plate 2 in wells A1-A12 and diluted two-fold in wells B-H. Volumes of 50 μl of antimicrobial A from each well of microtiter plate 1 were transferred into microtiter plate 3, except for wells H1-H12. Similarly, the same volumes were transferred from microtiter plate 2 into plate 3, except for wells A1-A8. A 100 μl volume of 25 times diluted ON bacterial culture of MRSA was transferred into each well of plate 3. A 50 μl volume of pure broth was added into each well in lines H1-H12 and A1-A8 which were used to estimate MIC values of pure substances (blank).\nAntimicrobial activity was measured using the AAMP assay as described in Example 2.\nSynergy testing was performed as in Example 2."}},
  "data": [
    {"smiles": "C/C=C(\\NC(=O)c1csc(-c2csc(-c3ccc4c(n3)-c3csc(n3)[C@H]([C@@H](C)O)NC(=O)c3csc(n3)[C@H](C(C)C)NC(=O)c3csc(n3)/C(=C/C)NC(=O)[C@H]([C@@H](C)O)NC(=O)c3csc-4n3)n2)n1)C(=O)NC[C@@H](C)O", "note": "[MP1, micrococcin P1]", "values": [
      {"measurement": "resistance development on agar plates", "setting": "[1]", "value": "resistant colonies of MRSA appeared within the inhibition zones"},
      {"measurement": "MIC of the component in combination", "setting": "[2]; 5 h, GarKS + MP1", "value": 0.16, "unit": "µg/mL"},
      {"measurement": "MIC of the component in combination", "setting": "[2]; 5 h, K1-EJ + GarKS + MP1", "value": 0.068, "unit": "µg/mL"},
      {"measurement": "MIC of the component in combination", "setting": "[2]; 5 h, K1-EJ + MP1", "value": 0.15, "unit": "µg/mL"},
      {"measurement": "MIC of the component in combination", "setting": "[2]; 24 h, GarKS + MP1", "value": 2.5, "unit": "µg/mL"},
      {"measurement": "MIC of the component in combination", "setting": "[2]; 24 h, K1-EJ + GarKS + MP1", "value": 0.33, "unit": "µg/mL"},
      {"measurement": "MIC of the component in combination", "setting": "[2]; 24 h, K1-EJ + MP1", "value": 2.3, "unit": "µg/mL"},
      {"measurement": "MIC of the component in combination", "setting": "[2]; 48 h, GarKS + MP1", "value": 5, "unit": "µg/mL"},
      {"measurement": "MIC of the component in combination", "setting": "[2]; 48 h, K1-EJ + GarKS + MP1", "value": 0.58, "unit": "µg/mL"},
      {"measurement": "MIC of the component in combination", "setting": "[2]; 48 h, K1-EJ + MP1", "value": 4.8, "unit": "µg/mL"},
      {"measurement": "MIC", "setting": "[2]; Staphylococcus haemolyticus, 4069, 5 h", "value": 0.15, "unit": "µg/mL"},
      {"measurement": "MIC", "setting": "[2]; Staphylococcus haemolyticus, 4069, 24 h", "value": "> 10", "unit": "µg/mL"},
      {"measurement": "MIC", "setting": "[2]; Staphylococcus haemolyticus, 4069, 48 h", "value": "> 10", "unit": "µg/mL"},
      {"measurement": "MIC of the component in combination", "setting": "[3]; 5 h, GarKS + MP1", "value": 0.02, "unit": "µg/mL"},
      {"measurement": "MIC of the component in combination", "setting": "[3]; 5 h, K1-EJ + GarKS + MP1", "value": 0.032, "unit": "µg/mL"},
      {"measurement": "MIC of the component in combination", "setting": "[3]; 5 h, K1-EJ + MP1", "value": 0.02, "unit": "µg/mL"},
      {"measurement": "MIC of the component in combination", "setting": "[3]; 24 h, GarKS + MP1", "value": 0.33, "unit": "µg/mL"},
      {"measurement": "MIC of the component in combination", "setting": "[3]; 24 h, K1-EJ + GarKS + MP1", "value": 0.28, "unit": "µg/mL"},
      {"measurement": "MIC of the component in combination", "setting": "[3]; 24 h, K1-EJ + MP1", "value": 0.28, "unit": "µg/mL"},
      {"measurement": "MIC of the component in combination", "setting": "[3]; 48 h, GarKS + MP1", "value": 0.63, "unit": "µg/mL"},
      {"measurement": "MIC of the component in combination", "setting": "[3]; 48 h, K1-EJ + GarKS + MP1", "value": 0.58, "unit": "µg/mL"},
      {"measurement": "MIC of the component in combination", "setting": "[3]; 48 h, K1-EJ + MP1", "value": 0.6, "unit": "µg/mL"},
      {"measurement": "MIC", "setting": "[3]; Staphylococcus haemolyticus, 4070, 5 h", "value": 0.02, "unit": "µg/mL"},
      {"measurement": "MIC", "setting": "[3]; Staphylococcus haemolyticus, 4070, 24 h", "value": 0.33, "unit": "µg/mL"},
      {"measurement": "MIC", "setting": "[3]; Staphylococcus haemolyticus, 4070, 48 h", "value": 0.13, "unit": "µg/mL"},
      {"measurement": "MIC of the component in combination", "setting": "[4]; 5 h, GarKS + MP1", "value": 0.068, "unit": "µg/mL"},
      {"measurement": "MIC of the component in combination", "setting": "[4]; 5 h, K1-EJ + GarKS + MP1", "value": 0.072, "unit": "µg/mL"},
      {"measurement": "MIC of the component in combination", "setting": "[4]; 5 h, K1-EJ + MP1", "value": 0.042, "unit": "µg/mL"},
      {"measurement": "MIC of the component in combination", "setting": "[4]; 24 h, GarKS + MP1", "value": 0.63, "unit": "µg/mL"},
      {"measurement": "MIC of the component in combination", "setting": "[4]; 24 h, K1-EJ + GarKS + MP1", "value": 0.16, "unit": "µg/mL"},
      {"measurement": "MIC of the component in combination", "setting": "[4]; 24 h, K1-EJ + MP1", "value": 0.14, "unit": "µg/mL"},
      {"measurement": "MIC of the component in combination", "setting": "[4]; 48 h, GarKS + MP1", "value": 0.65, "unit": "µg/mL"},
      {"measurement": "MIC of the component in combination", "setting": "[4]; 48 h, K1-EJ + GarKS + MP1", "value": 0.33, "unit": "µg/mL"},
      {"measurement": "MIC of the component in combination", "setting": "[4]; 48 h, K1-EJ + MP1", "value": 0.3, "unit": "µg/mL"},
      {"measurement": "MIC", "setting": "[4]; Staphylococcus haemolyticus, 4071, 5 h", "value": 0.043, "unit": "µg/mL"},
      {"measurement": "MIC", "setting": "[4]; Staphylococcus haemolyticus, 4071, 24 h", "value": "> 10", "unit": "µg/mL"},
      {"measurement": "MIC", "setting": "[4]; Staphylococcus haemolyticus, 4071, 48 h", "value": "> 10", "unit": "µg/mL"},
      {"measurement": "MIC of the component in combination", "setting": "[5]; 5 h, GarKS + MP1", "value": 0.02, "unit": "µg/mL"},
      {"measurement": "MIC of the component in combination", "setting": "[5]; 5 h, K1-EJ + GarKS + MP1", "value": 0.033, "unit": "µg/mL"},
      {"measurement": "MIC of the component in combination", "setting": "[5]; 5 h, K1-EJ + MP1", "value": 0.02, "unit": "µg/mL"},
      {"measurement": "MIC of the component in combination", "setting": "[5]; 24 h, GarKS + MP1", "value": 0.073, "unit": "µg/mL"},
      {"measurement": "MIC of the component in combination", "setting": "[5]; 24 h, K1-EJ + GarKS + MP1", "value": 0.078, "unit": "µg/mL"},
      {"measurement": "MIC of the component in combination", "setting": "[5]; 24 h, K1-EJ + MP1", "value": 0.036, "unit": "µg/mL"},
      {"measurement": "MIC of the component in combination", "setting": "[5]; 48 h, GarKS + MP1", "value": 0.083, "unit": "µg/mL"},
      {"measurement": "MIC of the component in combination", "setting": "[5]; 48 h, K1-EJ + GarKS + MP1", "value": 0.16, "unit": "µg/mL"},
      {"measurement": "MIC of the component in combination", "setting": "[5]; 48 h, K1-EJ + MP1", "value": 0.01, "unit": "µg/mL"},
      {"measurement": "MIC", "setting": "[5]; Staphylococcus haemolyticus, 4073, 5 h", "value": 0.022, "unit": "µg/mL"},
      {"measurement": "MIC", "setting": "[5]; Staphylococcus haemolyticus, 4073, 24 h", "value": 0.072, "unit": "µg/mL"},
      {"measurement": "MIC", "setting": "[5]; Staphylococcus haemolyticus, 4073, 48 h", "value": 0.14, "unit": "µg/mL"},
      {"measurement": "MIC of the component in combination", "setting": "[6]; 5 h, GarKS + MP1", "value": 0.02, "unit": "µg/mL"},
      {"measurement": "MIC of the component in combination", "setting": "[6]; 5 h, K1-EJ + GarKS + MP1", "value": 0.032, "unit": "µg/mL"},
      {"measurement": "MIC of the component in combination", "setting": "[6]; 5 h, K1-EJ + MP1", "value": 0.02, "unit": "µg/mL"},
      {"measurement": "MIC of the component in combination", "setting": "[6]; 24 h, GarKS + MP1", "value": 0.032, "unit": "µg/mL"},
      {"measurement": "MIC of the component in combination", "setting": "[6]; 24 h, K1-EJ + GarKS + MP1", "value": 0.078, "unit": "µg/mL"},
      {"measurement": "MIC of the component in combination", "setting": "[6]; 24 h, K1-EJ + MP1", "value": 0.078, "unit": "µg/mL"},
      {"measurement": "MIC of the component in combination", "setting": "[6]; 48 h, GarKS + MP1", "value": 0.068, "unit": "µg/mL"},
      {"measurement": "MIC of the component in combination", "setting": "[6]; 48 h, K1-EJ + GarKS + MP1", "value": 0.28, "unit": "µg/mL"},
      {"measurement": "MIC of the component in combination", "setting": "[6]; 48 h, K1-EJ + MP1", "value": 0.072, "unit": "µg/mL"},
      {"measurement": "MIC", "setting": "[6]; Staphylococcus haemolyticus, 4068, 5 h", "value": 0.02, "unit": "µg/mL"},
      {"measurement": "MIC", "setting": "[6]; Staphylococcus haemolyticus, 4068, 24 h", "value": 0.023, "unit": "µg/mL"},
      {"measurement": "MIC", "setting": "[6]; Staphylococcus haemolyticus, 4068, 48 h", "value": 0.078, "unit": "µg/mL"},
      {"measurement": "MIC", "setting": "[7]", "value": "> 45", "unit": "µg/mL"}
    ]}
  ]
}
